Results taken from ChEMBL document CHEMBL1201862, “PubChem BioAssay data set” (2004).
Activity calls are given as the source filed them.

Experiments:
[1] = ADAM10 inhibitors, peptide cleavage, dose response, biochemical, QFRET (AID 743254);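 further: ADAM10 enzyme with the DM2 quenched FRET peptide as substrate; EDANS fluorescence gain as the protease cuts the substrate; inhibitor potency against ADAM10 proteolytic activity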
[2] = molecular target: Disintegrin and metalloproteinase domain-containing protein 17 (Homo sapiens, UniProt P78536); assay: ADAM17 protease inhibitors, dose response, counter-screen for ADAM10 exosite inhibitor project, biochemical, quenched FRET substrate (AID 743253)
[3] = molecular target: Metabotropic glutamate receptor 7 (Homo sapiens, UniProt Q14831); assay: mGlu7 positive allosteric modulators, dose response, cell-based, calcium mobilization, Galpha15 (AID 743384); type: functional
[4] = A375 melanoma cell viability loss, dose response, counter-screen for MITF inhibitor project, CellTiter-Glo luminescence, dry powder, set 4 (AID 624364); type: functional, cell-based; conditions: A-375;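 further: A375 melanoma cells are MITF independent so this is a counter screen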
[5] = A375 melanoma cell cytotoxicity, dose response, counter-screen for MITF inhibitor project, CellTiter-Glo luminescence, dry powder, set 2 (AID 624489); type: functional, cell-based; conditions: A-375;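 further: actives are compounds lowering A375 viability meaning general cytotoxicity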
[6] = molecular target: T1, Microphthalmia-associated transcription factor (Homo sapiens, UniProt O75030); assay: TRPM1 promoter luciferase signal decrease, dose response, MITF inhibitor project, cell-based, SK-MEL-5, cherry-picked, set 3 (AID 493073); type: functional
T1 sequence (O75030 whole entry): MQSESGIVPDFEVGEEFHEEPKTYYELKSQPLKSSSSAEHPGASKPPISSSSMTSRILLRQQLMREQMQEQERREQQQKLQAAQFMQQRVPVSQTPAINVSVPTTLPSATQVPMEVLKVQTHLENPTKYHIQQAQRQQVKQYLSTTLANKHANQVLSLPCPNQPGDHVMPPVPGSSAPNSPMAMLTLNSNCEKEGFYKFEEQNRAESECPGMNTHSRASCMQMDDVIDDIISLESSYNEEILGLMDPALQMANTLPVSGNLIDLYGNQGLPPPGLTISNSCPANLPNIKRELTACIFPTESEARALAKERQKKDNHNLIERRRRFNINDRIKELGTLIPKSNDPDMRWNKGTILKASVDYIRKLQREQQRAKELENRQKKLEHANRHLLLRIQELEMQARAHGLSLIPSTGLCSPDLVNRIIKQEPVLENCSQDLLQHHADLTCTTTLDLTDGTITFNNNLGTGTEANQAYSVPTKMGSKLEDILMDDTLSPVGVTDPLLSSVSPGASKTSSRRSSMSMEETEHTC

[7] = molecular target: T2, Rac GTPase-activating protein 1 (Homo sapiens, UniProt Q9H0H5); assay: MgcRacGAP GTPase-activating activity inhibitors, confirmation, biochemical, ADP Hunter fluorescence, primary and confirmatory (AID 624330); type: functional
T2 sequence (Q9H0H5 whole entry): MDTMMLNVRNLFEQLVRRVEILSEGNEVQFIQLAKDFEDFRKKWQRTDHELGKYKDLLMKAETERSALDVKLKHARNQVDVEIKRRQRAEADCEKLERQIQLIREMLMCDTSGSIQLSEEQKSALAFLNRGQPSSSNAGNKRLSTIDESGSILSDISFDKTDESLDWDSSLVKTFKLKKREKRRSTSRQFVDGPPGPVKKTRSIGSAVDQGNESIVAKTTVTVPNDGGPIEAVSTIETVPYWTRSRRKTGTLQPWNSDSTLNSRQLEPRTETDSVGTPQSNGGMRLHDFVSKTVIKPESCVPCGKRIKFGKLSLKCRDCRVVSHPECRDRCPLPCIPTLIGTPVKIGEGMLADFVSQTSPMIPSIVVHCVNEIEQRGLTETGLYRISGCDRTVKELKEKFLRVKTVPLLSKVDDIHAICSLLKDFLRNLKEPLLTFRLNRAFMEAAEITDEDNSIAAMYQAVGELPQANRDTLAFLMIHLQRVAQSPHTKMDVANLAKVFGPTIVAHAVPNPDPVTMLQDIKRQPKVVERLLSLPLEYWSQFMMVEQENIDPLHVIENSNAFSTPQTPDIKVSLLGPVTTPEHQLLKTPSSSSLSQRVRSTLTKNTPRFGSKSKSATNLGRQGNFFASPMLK

Paired box protein Pax-8 = Paired box protein Pax-8 (Homo sapiens, UniProt Q06710); assay: inhibitors of PAX8-driven TPO luciferase reporter, dose response, RMG-I cells, cherry-pick (AID 687027); type: functional, cell-based;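 further: luciferase reporter driven by Pax8 target thyroperoxidase promoter measured by SteadyGlo luminescence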
[8] = A549 cell cytotoxicity, dose response, cytotoxicity control, plate reader, cherry-pick, antagonist series (AID 743412); type: functional, cell-based
[9] = HepG2 cell cytotoxicity, dose response, cytotoxicity control, plate reader, cherry-pick, antagonist series (AID 743416); type: functional, cell-based
[10] = LGR2 antagonists, dose response, cell-based, HEK293, CRE-luciferase reporter, cherry pick, set 2 (AID 743343); type: functional;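 further: transfected cells were stimulated with diluted bursicon conditioned medium after compound addition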
[11] = MC4R antagonists, dose response, counter-screen for LGR2 antagonist project, cell-based, plate reader, cherry pick (AID 743444); type: functional;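 further: transfected HEK 293 cells stimulated with alpha-MSH peptide; potency of inhibitors of the alpha-MSH evoked signal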
[12] = molecular target: T3, Oxysterols receptor LXR-beta (Homo sapiens, UniProt P55055); type: functional, cell-based;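 further: Cell-based luminescence dose-response assay of agonist activity at LXR, run as a confirmatory counterscreen to a daf-12 agonist screen; HEK293 cells with Gal4-LXR fusion and GAL4-driven luciferase reporter; agonist potency from rising luciferase signal of a Gal4-LXR reporter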
T3 sequence (P55055 whole entry): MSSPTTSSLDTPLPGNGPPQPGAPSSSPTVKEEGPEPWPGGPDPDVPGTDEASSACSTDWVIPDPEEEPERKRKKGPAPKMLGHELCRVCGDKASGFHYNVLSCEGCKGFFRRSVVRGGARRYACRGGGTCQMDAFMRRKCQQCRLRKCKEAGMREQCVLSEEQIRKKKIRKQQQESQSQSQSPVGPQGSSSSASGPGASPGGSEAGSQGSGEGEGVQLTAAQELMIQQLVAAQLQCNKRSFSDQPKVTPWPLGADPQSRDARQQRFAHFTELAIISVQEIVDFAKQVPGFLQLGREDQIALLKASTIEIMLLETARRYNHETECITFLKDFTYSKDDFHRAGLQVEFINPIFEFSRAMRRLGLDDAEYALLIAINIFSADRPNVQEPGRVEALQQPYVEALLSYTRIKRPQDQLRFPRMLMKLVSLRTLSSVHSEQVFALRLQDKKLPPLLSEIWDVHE

HEK293 = assay: HEK293T cell cytotoxicity, dose response, cytotoxicity control, ATP luminescence, cherry-pick samples (AID 687005); type: functional, cell-based; conditions: Homo sapiens;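 further: cells exposed to compound for 48 hours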
[13] = HEK293 Cytotoxicity Assay Measured in Cell-Based System Using Plate Reader - 7071-01_Inhibitor_Dose_CherryPick_Activity_Set2.; type: functional
[14] = molecular target: T4, Heat shock factor protein 1 (Mus musculus, UniProt P38532); assay: HSF1 potentiators in luciferase reporter cells, confirmation, cell-based, NIH3T3, luminescence, dose retest (AID 435004); type: functional;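 further: stress induced by proteasome inhibitor MG132 added 30 min after compound; luciferase reporter driven by HSF1 response element in NIH3T3 cells; actives raise luminescence as potentiators of the MG132 stress response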
T4 sequence (P38532 whole entry): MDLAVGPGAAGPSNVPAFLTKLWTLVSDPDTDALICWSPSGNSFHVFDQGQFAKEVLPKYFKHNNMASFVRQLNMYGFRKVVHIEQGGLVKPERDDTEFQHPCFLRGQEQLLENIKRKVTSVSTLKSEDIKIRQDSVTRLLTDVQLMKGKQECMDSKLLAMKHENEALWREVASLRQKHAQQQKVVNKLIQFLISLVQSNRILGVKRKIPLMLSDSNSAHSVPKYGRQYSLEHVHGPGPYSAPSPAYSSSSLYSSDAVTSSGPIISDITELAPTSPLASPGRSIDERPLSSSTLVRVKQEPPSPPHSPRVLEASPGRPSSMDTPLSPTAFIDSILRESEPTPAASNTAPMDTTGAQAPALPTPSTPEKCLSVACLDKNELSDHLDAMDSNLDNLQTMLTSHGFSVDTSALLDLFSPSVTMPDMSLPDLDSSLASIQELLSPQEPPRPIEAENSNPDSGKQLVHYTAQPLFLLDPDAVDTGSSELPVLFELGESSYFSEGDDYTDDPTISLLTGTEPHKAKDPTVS

INS1 = assay: beta cell apoptosis inhibitors, cytokine rescue, dose response, luminescence, retest (AID 449756); type: functional, cell-based; conditions: Rattus norvegicus, INS1;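 further: cell death triggered by IL-1 beta plus TNF-alpha plus IFN-gamma mixture; protective hits raise ATP signal compared with cytokine alone wells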
[15] = PAX2 cell-based inhibition, dose response, selectivity assay for PAX8 inhibitor project, plate reader, dry powder samples (AID 743048); type: functional;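 further: HEK293 cells carrying a WT1 promoter luciferase reporter driven by expressed Pax2; potency is for inhibition of Pax2 driven reporter signal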
[16] = NIH:OVCAR-3 ovarian cancer cell cytotoxicity, dose response, PAX8 inhibitor project, plate reader, dry powder samples (AID 743044); type: functional, cell-based
[17] = PAX5 activity inhibitors, dose response, selectivity assay for PAX8 inhibitor project, cell-based, plate reader, dry powder samples (AID 743047); type: functional;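 further: HEK293 cells carrying a Pax5 driven CD19 promoter luciferase reporter; potency of inhibitors that lower reporter luminescence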
[18] = IGROV1 ovarian cancer cell cytotoxicity, dose response, PAX8 inhibitor project, plate reader, dry powder samples (AID 743043); type: functional, cell-based; conditions: IGROV-1
[19] = cytotoxicity in COV434 cells, dose response, cytotoxicity control for PAX8 inhibitor project, cell-based, plate reader, dry powder, SA7 (AID 743145); type: functional
[20] = cytotoxicity dependent on PAX8, dose response, cell-based, plate reader, dry powder (AID 743049); type: functional

Chain of Disintegrin and metalloproteinase domain-containing protein 17 (P78536 whole entry, the tested form may be a part): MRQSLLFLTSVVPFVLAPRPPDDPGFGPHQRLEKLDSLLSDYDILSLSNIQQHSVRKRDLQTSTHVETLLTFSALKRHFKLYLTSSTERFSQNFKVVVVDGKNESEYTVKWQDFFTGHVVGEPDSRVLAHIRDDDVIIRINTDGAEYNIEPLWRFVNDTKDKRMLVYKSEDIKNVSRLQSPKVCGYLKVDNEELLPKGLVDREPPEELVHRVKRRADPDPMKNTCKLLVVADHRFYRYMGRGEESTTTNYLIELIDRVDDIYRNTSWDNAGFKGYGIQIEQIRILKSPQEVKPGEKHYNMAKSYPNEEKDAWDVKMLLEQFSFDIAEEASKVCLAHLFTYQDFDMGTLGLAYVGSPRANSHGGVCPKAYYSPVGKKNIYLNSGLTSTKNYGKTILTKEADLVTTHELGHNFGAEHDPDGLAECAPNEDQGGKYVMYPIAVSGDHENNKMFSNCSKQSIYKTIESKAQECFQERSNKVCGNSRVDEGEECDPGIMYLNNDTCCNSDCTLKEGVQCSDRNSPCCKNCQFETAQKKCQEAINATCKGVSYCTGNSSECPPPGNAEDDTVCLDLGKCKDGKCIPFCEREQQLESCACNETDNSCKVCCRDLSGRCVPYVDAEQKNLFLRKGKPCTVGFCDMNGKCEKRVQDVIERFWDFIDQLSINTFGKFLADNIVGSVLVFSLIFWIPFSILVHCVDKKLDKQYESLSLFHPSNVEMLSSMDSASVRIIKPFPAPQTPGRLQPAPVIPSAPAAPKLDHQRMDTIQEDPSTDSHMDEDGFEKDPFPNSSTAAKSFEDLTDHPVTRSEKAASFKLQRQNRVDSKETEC
Chain of Paired box protein Pax-8 (Q06710 whole entry): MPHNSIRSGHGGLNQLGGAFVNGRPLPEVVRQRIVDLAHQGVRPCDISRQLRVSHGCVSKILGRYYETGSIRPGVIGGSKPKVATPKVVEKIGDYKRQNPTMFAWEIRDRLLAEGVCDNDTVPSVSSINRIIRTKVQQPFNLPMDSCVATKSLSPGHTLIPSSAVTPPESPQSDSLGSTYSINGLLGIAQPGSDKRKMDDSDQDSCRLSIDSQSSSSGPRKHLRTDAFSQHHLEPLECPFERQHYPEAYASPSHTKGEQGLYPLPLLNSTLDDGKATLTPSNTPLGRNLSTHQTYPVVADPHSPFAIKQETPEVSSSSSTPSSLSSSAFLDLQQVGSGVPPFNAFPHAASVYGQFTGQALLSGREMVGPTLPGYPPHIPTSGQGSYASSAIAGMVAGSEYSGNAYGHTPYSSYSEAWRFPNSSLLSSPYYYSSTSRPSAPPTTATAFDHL
Chain of Metabotropic glutamate receptor 7 (Q14831 whole entry): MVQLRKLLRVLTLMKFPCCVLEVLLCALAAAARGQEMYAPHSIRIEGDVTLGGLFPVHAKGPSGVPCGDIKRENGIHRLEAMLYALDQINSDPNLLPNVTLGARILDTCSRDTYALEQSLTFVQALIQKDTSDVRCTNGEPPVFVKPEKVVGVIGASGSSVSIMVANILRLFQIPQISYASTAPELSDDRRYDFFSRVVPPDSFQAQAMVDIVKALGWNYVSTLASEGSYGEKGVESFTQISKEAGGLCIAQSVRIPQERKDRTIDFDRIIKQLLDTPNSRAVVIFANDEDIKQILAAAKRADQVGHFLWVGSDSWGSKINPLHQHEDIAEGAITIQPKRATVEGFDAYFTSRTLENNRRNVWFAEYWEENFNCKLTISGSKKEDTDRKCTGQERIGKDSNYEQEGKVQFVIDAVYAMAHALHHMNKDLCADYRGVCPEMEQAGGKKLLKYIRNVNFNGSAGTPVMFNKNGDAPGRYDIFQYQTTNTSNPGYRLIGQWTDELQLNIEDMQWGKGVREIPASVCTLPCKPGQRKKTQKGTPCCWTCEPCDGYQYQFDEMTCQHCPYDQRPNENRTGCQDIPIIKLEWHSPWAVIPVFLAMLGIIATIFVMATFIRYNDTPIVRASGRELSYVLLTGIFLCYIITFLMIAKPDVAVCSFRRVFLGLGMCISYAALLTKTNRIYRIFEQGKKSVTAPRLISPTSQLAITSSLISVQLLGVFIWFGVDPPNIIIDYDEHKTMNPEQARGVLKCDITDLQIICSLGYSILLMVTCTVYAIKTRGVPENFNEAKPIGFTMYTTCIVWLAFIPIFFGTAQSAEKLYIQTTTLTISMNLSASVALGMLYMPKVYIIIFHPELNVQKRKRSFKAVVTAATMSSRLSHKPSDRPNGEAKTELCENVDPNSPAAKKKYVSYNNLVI

For `COc1cc(/C=N/OCC(=O)Nc2ccc(OC(F)F)cc2)ccc1OCc1ccccc1`, the IC50 [1] was > 69.5 µM (inactive) and the IC50 [2] was > 69.5 µM (inactive).

With `CC(=O)Nc1ccc(SCC(=O)c2cc(C)n(CC3COc4ccccc4O3)c2C)cc1` (stereo not drawn) the EC50 [3] was 2.6 µM (active).

In the case of `CCOc1ccc(-n2c(C)cc(C(=O)CSCc3ccc(OC)cc3)c2C)cc1`, the EC50 [3] is reported as 10 µM (active).

In the case of `CC(=O)NC1=C(c2ccccc2)C(=O)c2ccccc2C1=O`, the AC50 [4] is reported as 15.6 µM (active) and the AC50 [5] is reported as 8.87 µM (active).

For `O=C(O)c1cccc(N/N=C/c2cccs2)c1`, the AC50 [6] was 1.51 µM (active), the IC50 [7] was 75.3 µM (active) and the AC50 (Paired box protein Pax-8) was 6.14 µM (active). The AC50 [8] was > 52 µM (inactive), the AC50 [9] was > 52 µM (inactive) and the AC50 [10] was 1.87 µM (active). The AC50 [11] was 2.41 µM (active), the EC50 [12] was > 67.5 µM (inactive) and the EC50 (cells) was > 67.5 µM (inactive).

With `CCC(=O)N(Cc1ccco1)c1nc(C(=O)Nc2ccc(Cl)cc2)c(C)s1` the IC50 [1] was > 69.5 µM (inactive) and the IC50 [2] was > 69.5 µM (inactive).

In the case of `CC(NC(=O)COc1ccccc1C(C)(C)C)c1ccccc1` (stereo not drawn), the AC50 (HEK293) is reported as 51.4 µM (active) and the AC50 [13] is reported as 51.4 µM (active).

In the case of `O=C(Nc1ccc(OCC(F)(F)C(F)F)c(C(F)(F)F)c1)c1ccccc1O`, the EC50 [14] is reported as 67.4 µM (active), the AC50 (INS1) is reported as 4.78 µM (active) and the AC50 (Paired box protein Pax-8) is reported as 7.06 µM (active). For the same compound, the AC50 [15] was 3.62 µM (active), the AC50 [16] was 14.8 µM (active) and the AC50 [17] was 6.09 µM (active). The AC50 [18] was 48.2 µM (active), the AC50 [19] was 56.2 µM (active) and the AC50 [20] was 17.8 µM (active).
